Test results from patent US20230130513A1, “Magnetic-Responsive Photosensitizer Nanoplatform and Uses Thereof” (University of Maryland, Baltimore, priority 2021, published 2023).

What was measured:
S. mutans UA159 biofilms = test: Photodynamic treatment against Streptococcus mutans biofilms (CFU); assay type: cell-based; conditions: for antibacterial effect of core components on S. mutans biofilm: components alone, diluted to their concentration in the microemulsion (FIG. 5A)
Procedure: Photodynamic Treatment Via MagTBO Against Streptococcus mutans Biofilms S. mutans UA159 obtained from the American Type Culture Collection (ATCC, Manassas, Va., USA) were grown overnight using brain heart infusion (BHI) broth (Sigma-Aldrich, St. Louis, Mo., USA) at 37° C. and 5% CO2 incubator. The optical density of the S. mutans was modified to 1×10^8 colony-forming units (CFU)/mL (OD600=0.9) and diluted 1:20 with BHI broth supplemented with 2% of sucrose (12). 200 μL of the diluted overnight culture was placed inside the wells of a black 96-well plate for 24 h. The media was changed after 24 h and 48 h of biofilm growth was continued. The biofilm was washed with 0.9% saline and irradiated with 100 μg/mL of TBO and MagTBO microemulsions containing 1, 2.5, and 5% of SPIONs with and without magnetic field (neodymium magnet, 0.4 Tesla; pull force=601b5). The TBO or the microemulsions were left for 1 min and then irradiated for 5 minutes to deliver an energy density of 180 J/cm^2 and light intensity of 180 mW. The magnetic field was applied at a 10 mm distance below the biofilm during the entire period of the incubation and irradiation times (FIG. 1C). Untreated wells and wells treated with glycerol, essential oil, and polysorbate 20 were used as controls. After each treatment, the biofilms were washed by placing 200 μL of 0.9% saline inside the well, and then, the 0.9% saline was gently aspirated. Next, another 200 μL of saline was placed inside the well, and the biofilm was gently scraped to remove the biofilm cells (23). Then, the biofilm cells were resuspended with the saline to perform serial dilutions (1:10, 1:100, 1:1000, 1:10 000, and 1:100 000) using BHI agar. The BHI agar plates were incubated for 48 h at 37° C. in a 5% CO2 incubator and then counted using a colony counter. Considering the dilution factor, the CFUs/mL were calculated and estimated to measure the number of colonies per milliliter. Two wells were randomly selected for Live/Dead staining of the biofilms to be washed with 0.9% saline and then stained with the BacLight live/dead kit (Molecular Probes, Eugene, Oreg.).

[1] = tested on: Human gingival fibroblasts
Procedure: Human gingival fibroblasts (HGF, ScienCell, San Diego, Calif., USA) were cultured using fibroblast medium (FM) supplemented with 2% fetal bovine serum, 1% fibroblast growth supplement, 100 IU/mL penicillin, and 100 IU/mL streptomycin (18 76). When the viability of the cells was above 90%, the cells were seeded in the wells of a 96-well plate (5,000 cells per well) and incubated for 24 h. In the following day, the medium was removed, and different concentrations of superparamagnetic iron(II) oxide nanoparticles (0.25, 0.5, 1, 1.5, 2, 2.5, and 5 wt. %) nanoparticles with and without 100 μg/mL of TBO photosensitizer were dissolved in the fibroblast medium and incubated in contact with the cells for 24 h. The synthesized microemulsions containing the different concentrations of superparamagnetic iron(II) oxide nanoparticles (0.25, 0.5, 1, 1.5, 2, 2.5, and 5 wt. %) were also tested. All the microemulsions were diluted with the fibroblast medium at a 1:1 ratio. After 24 h of incubation at 37° C. with 5% CO2, the cells were washed with phosphate-buffered saline (PBS), and cell counting Kit-8 (CCK-8, Dojindo, Rockville, Md., USA) was used to evaluate the cell viability. The absorbance was read at 450 nm using a spectrophotometer (SpectraMax M5, Molecular Devices, Sunnyvale, Calif., USA). For the live/dead assay, the fibroblast cells were seeded in the wells of a 24-well plate (40,000 cells per well). The medium was changed daily to allow the viability to be above 90%. Microemulsions containing 5 and 2.5% were added to a fresh culture medium at the ratio of 1:1 and incubated with the cells for one day. Wells treated with TBO alone or with no treatment were used as controls. After one day of incubation, the old medium was removed, cells were washed with PBS, and LIVE/DEAD™ Cell Imaging Kit (Invitrogen, Frederick, Md., USA) was used to stain the cells. The cells were visualized using an inverted epifluorescence microscope (Eclipse TE2000-S, Nikon, Melville, N.Y., USA).

[2] = tested on: Human gingival fibroblasts; test: Live/dead assay of fibroblast cells; assay type: cell-based; conditions: one day incubation; microemulsions 1:1 with medium
Procedure: Human gingival fibroblasts (HGF, ScienCell, San Diego, Calif., USA) were cultured using fibroblast medium (FM) supplemented with 2% fetal bovine serum, 1% fibroblast growth supplement, 100 IU/mL penicillin, and 100 IU/mL streptomycin (18 76). When the viability of the cells was above 90%, the cells were seeded in the wells of a 96-well plate (5,000 cells per well) and incubated for 24 h. In the following day, the medium was removed, and different concentrations of superparamagnetic iron(II) oxide nanoparticles (0.25, 0.5, 1, 1.5, 2, 2.5, and 5 wt. %) nanoparticles with and without 100 μg/mL of TBO photosensitizer were dissolved in the fibroblast medium and incubated in contact with the cells for 24 h. The synthesized microemulsions containing the different concentrations of superparamagnetic iron(II) oxide nanoparticles (0.25, 0.5, 1, 1.5, 2, 2.5, and 5 wt. %) were also tested. All the microemulsions were diluted with the fibroblast medium at a 1:1 ratio. After 24 h of incubation at 37° C. with 5% CO2, the cells were washed with phosphate-buffered saline (PBS), and cell counting Kit-8 (CCK-8, Dojindo, Rockville, Md., USA) was used to evaluate the cell viability. The absorbance was read at 450 nm using a spectrophotometer (SpectraMax M5, Molecular Devices, Sunnyvale, Calif., USA). […]

pH measurement = assay type: physicochemical; conditions: room temperature
Procedure: (§1) Three microemulsions were selected for further investigations (1, 2.5, and 5 wt. %). Microemulsions were tested for thermodynamic stability via centrifugation stress at 5,000 rpm for 2 h at 4° C., and freeze-thaw stress consisting of three complete cycles. Each cycle consisted of placing the microemulsion for 24 h at −20° C. followed by another 24 h at 4° C. […] For long-term stability, microemulsions were kept in the dark at room temperature and then examined at 1, 3, and 6 months for physical changes or phase separation (21,22). The pH of the synthesized microemulsions was tested using a digital pH meter (accuracy±5%; Accumet XL25, Thermo Fisher Scientific, Waltham, Mass., USA). Before the pH measurement, the pH meter was calibrated using commercial standard buffer solutions of pH 4, pH 7, and pH 10 at room temperature. For the absorbance evaluation, the upper third of the synthesized microemulsions was investigated over time using ultraviolet-visible optical absorption spectrometry (SpectraMax M5, Molecular Devices, Sunnyvale, Calif., USA). […] The density of each microemulsion was calculated following the equation: […]

Density of microemulsion = assay type: physicochemical
[3] = tested on: saliva-derived multispecies biofilms; test: Photodynamic treatment against saliva-derived biofilms (CFU); assay type: cell-based; conditions: 7-day biofilm on dentin slabs, aPDT, no magnetic field, vs control
Procedure: Photodynamic Treatment with MagTBO Against Saliva-Derived Biofilms
Saliva samples were collected from ten healthy individuals with no active carious lesions or history of antibiotics in the last three months. The participants were instructed not to brush their teeth 24 h and not eat or drink two h before the collection. The collected saliva samples were mixed to create a homogenous and complex bacterial composition. The use of saliva as inoculum was approved by the University of Maryland Baltimore Institutional Review Board (HP-00050407). The collected saliva was mixed with glycerol (70:30) and stored at −80° C. This model was used in previous studies to form thick and mature multispecies biofilm (24-26).
Dentin slabs (6×6×1 mm) were used as substrates to grow the biofilm (FIG. 8A). The slabs were prepared from radicular dentin of extracted teeth using a diamond saw with water as coolant (Isomet, Buehler, Lake Bluff, Ill., USA). The collection and the use of extracted teeth were approved by the University of Maryland Baltimore Institutional Review Board. […] The microhardness of the slabs was measured via Vicker's indentation (HMV II, Shimadzu Corporation, Kyoto, Japan) by calculating the average of five different indentations (25 g load for 10 s) per slab (27). […]

S. mutans biofilms = test: Live/Dead staining of S. mutans biofilms; assay type: cell-based, Streptococcus mutans; conditions: aPDT, no magnetic field
Procedure: After each treatment, the biofilms were washed by placing 200 μL of 0.9% saline inside the well, and then, the 0.9% saline was gently aspirated. Next, another 200 μL of saline was placed inside the well, and the biofilm was gently scraped to remove the biofilm cells (23). Then, the biofilm cells were resuspended with the saline to perform serial dilutions (1:10, 1:100, 1:1000, 1:10 000, and 1:100 000) using BHI agar. The BHI agar plates were incubated for 48 h at 37° C. in a 5% CO2 incubator and then counted using a colony counter. Considering the dilution factor, the CFUs/mL were calculated and estimated to measure the number of colonies per milliliter. Two wells were randomly selected for Live/Dead staining of the biofilms to be washed with 0.9% saline and then stained with the BacLight live/dead kit (Molecular Probes, Eugene, Oreg.).

[4] = tested on: mouse monocyte-macrophage cells; conditions: cited from earlier work
[5] = Absorbance change over time (UV-visible spectrometry); assay type: physicochemical
Procedure: as §1

Row | Compound | antibacterial effect of core components on S. mutans biofilm (S. mutans UA159 biofilms) | reduction against the S. mutans biofilm (CFU) (S. mutans UA159 biofilms; aPDT with light activation 180 J/cm2, no magnetic field, vs control (FIG. 5C)) [log] | antibacterial effect on S. mutans biofilm (S. mutans UA159 biofilms; incubated for 5 min without light activation (FIG. 5B)) | percentage of fibroblast viability ([1]; TBO alone, 100 μg/mL, 24 h) [%] | cytotoxicity against fibroblasts (in words) ([1]; compared to the control) | viable cells in live/dead images [2] | pH Measurement (pH measurement) | Density (Density of microemulsion) [g/mL] | reduction of multispecies biofilm CFU (total microorganisms, total streptococci, mutans streptococci, total lactobacilli) [3] | viable microorganisms in live/dead images (S. mutans biofilms) | toxicity against macrophage cells ([4]; 100 μg/mL TBO, previous report (12)) | cytotoxicity against macrophage cell line ([4]; concentrations higher than 100 μg/mL, reported (12)) | Absorbance change (%) ([5]; 1-Month) | Absorbance change (%) ([5]; 3-Month) | Absorbance change (%) ([5]; 6-Month) | cytotoxicity of the microemulsion components (in words) ([1]; added to fibroblast media in a ratio similar to their proportion in the microemulsion)
1 | OCC(O)CO [glycerol] | None of the components were associated with any antibacterial effect |  |  |  |  |  |  |  |  |  |  |  |  |  |  | 
2 | Cc1cc2nc3ccc(N(C)C)cc3[s+]c2cc1N.[Cl-] [TBO, toluidine blue O] |  | 3 | No antibacterial effect | 33.4 | significant toxicity | significantly reduced viability | 3.19 ± 0.05 | 1 | around 1 log | significant reduction in the viable microorganisms | did not induce significant toxicity | critical cytotoxicity | No change | No change | No change | 
3 | polysorbate 20 | None of the components were associated with any antibacterial effect |  |  |  |  |  |  |  |  |  |  |  |  |  |  | significant cytotoxicity
